From patent US20110118262A1, “Pyrrolidinyl and Piperidinyl Compounds Useful as NHE-1 Inhibitiors” (BOEHRINGER INGELHEIM INTERNATIONAL GMBH, priority 2008, published 2011)

Target: T1, NHE-1 (Homo sapiens, UniProt P19634)
T1 construct: endogenous in cells; host or cells: HT-29
Experiment: Evaluation of NHE-1 Inhibition (pHi) in HT-29 cells
Format: cell-based
Details: BCECF dye, 50% inhibition of the intracellular pH recovery, read-out: NHE1 HT29 pHi IC50
Protocol: Evaluation of NHE-1 Inhibition (pHi)
HT-29 cells resuspended in DMEM supplemented with 10% FBS, 1% NEAA, and 1% Penn-Strep are seeded at 10,000 cells/well in collagen coated 384 well plates which are then incubated for 24 hours at 37° C. The next day, the medium is removed and the cells are dye (Invitrogen's BCECF) loaded for 30 minutes at 37° C., washed three times with an acid loading buffer (10 mM NH4Cl, 1.8 mM CaCl2, 90 mM Choline Cl, 5 mM Glucose, 15 mM Hepes, 5 mM KCl, 1 mM MgCl2, adjusted to pH 7.5 with KOH) and further incubated at RT for 30 minutes.
At the end of the incubation, the buffer is removed and 5 uL of fresh acid loading buffer is added to each well to prevent the dessication of the cells. The plate is placed in a Hamamatsu FDSS6000 instrument and candidate compounds are added to the cells.

T1 sequence (P19634 whole entry): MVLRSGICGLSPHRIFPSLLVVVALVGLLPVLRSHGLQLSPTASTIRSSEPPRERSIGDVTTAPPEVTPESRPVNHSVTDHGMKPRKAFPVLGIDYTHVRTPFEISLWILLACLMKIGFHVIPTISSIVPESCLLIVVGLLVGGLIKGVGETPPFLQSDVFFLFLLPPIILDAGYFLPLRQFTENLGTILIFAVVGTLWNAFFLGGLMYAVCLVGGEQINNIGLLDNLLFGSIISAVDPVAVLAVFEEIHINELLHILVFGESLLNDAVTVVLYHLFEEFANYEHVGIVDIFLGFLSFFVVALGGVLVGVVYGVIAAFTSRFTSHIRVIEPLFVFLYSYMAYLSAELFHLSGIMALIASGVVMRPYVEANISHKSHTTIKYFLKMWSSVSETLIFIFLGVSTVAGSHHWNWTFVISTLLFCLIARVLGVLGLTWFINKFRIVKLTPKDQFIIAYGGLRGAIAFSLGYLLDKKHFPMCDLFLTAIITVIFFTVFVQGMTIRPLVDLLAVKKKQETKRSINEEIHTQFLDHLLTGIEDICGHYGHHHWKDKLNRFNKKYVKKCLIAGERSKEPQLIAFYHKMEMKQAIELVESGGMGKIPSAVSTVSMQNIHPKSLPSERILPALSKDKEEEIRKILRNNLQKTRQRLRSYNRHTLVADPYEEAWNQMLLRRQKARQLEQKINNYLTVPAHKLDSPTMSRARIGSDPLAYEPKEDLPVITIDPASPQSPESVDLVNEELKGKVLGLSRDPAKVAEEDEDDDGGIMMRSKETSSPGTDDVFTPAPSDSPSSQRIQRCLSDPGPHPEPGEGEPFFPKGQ

Structure (SMILES) | IC50 [nM]
COc1ccc(CC(N)C(=O)N2CCC(c3ccc(C(=O)NC(=N)N)cc3C(F)(F)F)CC2)cc1 (centres unmarked) | 37
N=C(N)NC(=O)c1ccc(C2CCN(C(=O)C(N)CC(N)=O)CC2)c(C(F)(F)F)c1 (centres unmarked) [3-Amino-4-[4-(4-guanidinocarbonyl-2-trifluoromethyl-phenyl)-piperidin-1-yl]-4-oxo-butyramide] | 15
N=C(N)NC(=O)c1ccc(C2CCN(C(N)=O)CC2)c(C(F)(F)F)c1 [4-(4-Guanidinocarbonyl-2-trifluoromethyl-phenyl)-piperidine-1-carboxylic acid amide] | 6
CN(C)C(=O)N1CCC(c2ccc(C(=O)NC(=N)N)cc2C(F)(F)F)CC1 [4-(4-Guanidinocarbonyl-2-trifluoromethyl-phenyl)-piperidine-1-carboxylic acid dimethylamide] | 10
CN(C)C(=O)c1ccc(C(=O)N2CCC(c3ccc(C(=O)NC(=N)N)cc3C(F)(F)F)CC2)cc1 [4-[4-(4-Guanidinocarbonyl-2-trifluoromethyl-phenyl)-piperidine-1-carbonyl]-N,N-dimethyl-benzamide] | 48
CN(C)S(=O)(=O)c1ccc(C(=O)N2CCC(c3ccc(C(=O)NC(=N)N)cc3C(F)(F)F)CC2)cc1 [4-[4-(4-Guanidinocarbonyl-2-trifluoromethyl-phenyl)-piperidine-1-carbonyl]-N,N-dimethyl-benzenesulfonamide] | 36
CNS(=O)(=O)c1ccc(C(=O)N2CCC(c3ccc(C(=O)NC(=N)N)cc3C(F)(F)F)CC2)cc1 [4-[4-(4-Guanidinocarbonyl-2-trifluoromethyl-phenyl)-piperidine-1-carbonyl]-N-methyl-benzenesulfonamide] | 51
CNS(=O)(=O)c1ccc(Oc2ccc(C(=O)N3CCC(c4ccc(C(=O)NC(=N)N)cc4C(F)(F)F)CC3)cn2)cc1 [4-{5-[4-(4-Guanidinocarbonyl-2-trifluoromethyl-phenyl)-piperidine-1-carbonyl]-pyridin-2-yloxy}-N-methyl-benzenesulfonamide] | 92
COc1cc(C2CCN(C(=O)[C@H](OC(C)=O)c3ccccc3)CC2)c(C(F)(F)F)cc1C(=O)NC(=N)N [(R)-Acetic acid 2-[4-(4-guanidinocarbonyl-5-methoxy-2-trifluoromethyl-phenyl)-piperidin-1-yl]-2-oxo-1-phenyl-ethyl ester] | 110
Cn1cnc(C[C@@H](N)C(=O)N2CCC(c3ccc(C(=O)NC(=N)N)cc3C(F)(F)F)CC2)c1 [(R)-N-(4-{1-[-2--Amino-3-(1-methyl-1H-imidazol-4-yl)-propionyl]-piperidin-4-yl}-3-trifluoromethyl-benzoyl)-guanidine] | 43
N=C(N)NC(=O)c1ccc([C@H]2CCN(C(=O)c3ccc(F)cc3)C2)c(C(F)(F)F)c1 [(R)-N-{4-[1-(4-fluoro-benzoyl)-pyrrolidin-3-yl]-3-trifluoromethyl-benzoyl}-guanidine] | 24
C[C@@](N)(Cc1ccccc1)C(=O)N1CCC(c2ccc(C(=O)NC(=N)N)cc2C(F)(F)F)CC1 [(R)-N-{4-[1-(-2--Amino-2-methyl-3-phenyl-propionyl)-piperidin-4-yl]-3-trifluoromethyl-benzoyl}-guanidine] | 24
N=C(N)NC(=O)c1ccc([C@H]2CCN(C(=O)c3ccco3)C2)c(C(F)(F)F)c1 [(R)-N-{4-[1-(Furan-2-carbonyl)-pyrrolidin-3-yl]-3-trifluoromethyl-benzoyl}-guanidine] | 28
N=C(N)NC(=O)c1ccc(C2CCN(C(=O)[C@@H](N)CC(=O)O)CC2)c(C(F)(F)F)c1 [(S)-3-Amino-4-[4-(4-guanidinocarbonyl-2-trifluoromethyl-phenyl)-piperidin-1-yl]-4-oxo-butyric acid] | 9
COc1cc(C2CCN(C(=O)[C@@H](OC(C)=O)c3ccccc3)CC2)c(C(F)(F)F)cc1C(=O)NC(=N)N [(S)-Acetic acid 2--[4-(4-guanidinocarbonyl-5-methoxy-2-trifluoromethyl-phenyl)-piperidin-1-yl]-2-oxo-1-phenyl-ethyl ester] | 92
Cn1cnc(C[C@H](N)C(=O)N2CCC(c3ccc(C(=O)NC(=N)N)cc3C(F)(F)F)CC2)c1 [(S)-N-(4-{1-[2-Amino-3-(1-methyl-1H-imidazol-4-yl)-propionyl]-piperidin-4-yl}-3-trifluoromethyl-benzoyl)-guanidine] | 49
Cn1cncc1C[C@H](N)C(=O)N1CCC(c2ccc(C(=O)NC(=N)N)cc2C(F)(F)F)CC1 [(S)-N-(4-{1-[2-Amino-3-(3-methyl-3H-imidazol-4-yl)-propionyl]-piperidin-4-yl}-3-trifluoromethyl-benzoyl)-guanidine] | 22
COc1cc(C2CCN(C(=O)[C@@](C)(O)c3ccccc3)CC2)c(C(F)(F)F)cc1C(=O)NC(=N)N [(S)-N-{4-[1-(2-Hydroxy-2-phenyl-propionyl)-piperidin-4-yl]-2-methoxy-5-trifluoromethyl-benzoyl}-guanidine] | 200
C[S+]([O-])CC[C@H](N)C(=O)N1CCC(c2ccc(C(=O)NC(=N)N)cc2C(F)(F)F)CC1 (stereo partly drawn) [(S)-N-{4-[1-(-2-Amino-4-methanesulfinyl-butyryl)-piperidin-4-yl]-3-trifluoromethyl-benzoyl}-guanidine] | 12
N=C(N)NC(=O)c1ccc(C2CCN(C(=O)[C@@H]3CCC(=O)N3)CC2)c(C(F)(F)F)c1 [(S)-N-{4-[1-(-5-Oxo-pyrrolidine-2-carbonyl)-piperidin-4-yl]-3-trifluoromethyl-benzoyl}-guanidine] | 11
N=C(N)NC(=O)c1ccc([C@@H]2CCN(C(=O)c3ccc(F)cc3)C2)c(C(F)(F)F)c1 [(S)-N-{4-[-1-(4-fluoro-benzoyl)-pyrrolidin-3-yl]-3-trifluoromethyl-benzoyl}-guanidine] | 18
N=C(N)NC(=O)c1ccc([C@@H]2CCN(C(=O)c3ccco3)C2)c(C(F)(F)F)c1 [(S)-N-{4-[-1-(Furan-2-carbonyl)-pyrrolidin-3--yl]-3-trifluoromethyl-benzoyl}-guanidine] | 17
Cc1cc(C2CCN(C(=O)CN3CCCC3=O)CC2)c(C(F)(F)F)cc1C(=O)NC(=N)N [N-(2-Methyl-4-{1-[2-(2-oxo-pyrrolidin-1-yl)-acetyl]-piperidin-4-yl}-5-trifluoromethyl-benzoyl)-guanidine] | 37
N=C(N)NC(=O)c1ccc(C2CCN(C(=O)Cc3ccc(F)cc3)CC2)c(C(F)(F)F)c1 [N-(4-{1-[2-(4-Fluoro-phenyl)-acetyl]-piperidin-4-yl}-3-trifluoromethyl-benzoyl)-guanidine] | 135

Next, values leading:

IC50 [nM] | Structure (SMILES)
13 | N=C(N)NC(=O)c1ccc(C2CCN(C(=O)c3ccc(Cl)c(S(N)(=O)=O)c3)CC2)c(C(F)(F)F)c1 [2-Chloro-5-[4-(4-guanidinocarbonyl-2-trifluoromethyl-phenyl)-piperidine-1-carbonyl]-benzenesulfonamide]
43 | CNC(=O)c1ccc(C(=O)N2CCC(c3ccc(C(=O)NC(=N)N)cc3C(F)(F)F)CC2)cc1 [4-[4-(4-Guanidinocarbonyl-2-trifluoromethyl-phenyl)-piperidine-1-carbonyl]-N-methyl-benzamide]
28 | N=C(N)NC(=O)c1ccc(C2CCN(C(=O)c3ccc(C(N)=O)cc3)CC2)c(C(F)(F)F)c1 [4-[4-(4-Guanidinocarbonyl-2-trifluoromethyl-phenyl)-piperidine-1-carbonyl]-benzamide]
13 | N=C(N)NC(=O)c1ccc(C2CCN(C(=O)c3ccc(S(N)(=O)=O)cc3)CC2)c(C(F)(F)F)c1 [4-[4-(4-Guanidinocarbonyl-2-trifluoromethyl-phenyl)-piperidine-1-carbonyl]-benzenesulfonamdide]
183 | COC(=O)c1ccc(C(=O)N2CCC(c3ccc(C(=O)NC(=N)N)cc3C(F)(F)F)CC2)cc1 [4-[4-(4-Guanidinocarbonyl-2-trifluoromethyl-phenyl)-piperidine-1-carbonyl]-benzoic acid methyl ester]
27 | N=C(N)NC(=O)c1ccc(C2CCN(C(=O)c3ccc(C(=O)O)cc3)CC2)c(C(F)(F)F)c1 [4-[4-(4-Guanidinocarbonyl-2-trifluoromethyl-phenyl)-piperidine-1-carbonyl]-benzoic acid]
24 | N=C(N)NC(=O)c1ccc(C2CCN(C(=O)[C@H](N)c3ccccc3)CC2)c(C(F)(F)F)c1 [(R)-N-{4-[1-(2-Amino-2-phenyl-acetyl)-piperidin-4-yl]-3-trifluoromethyl-benzoyl}-guanidine]
21 | N=C(N)NC(=O)c1ccc(C2CCN(C(=O)[C@@H](N)c3ccccc3)CC2)c(C(F)(F)F)c1 [(S)-N-{4-[1-(-2-Amino-2-phenyl-acetyl)-piperidin-4-yl]-3-trifluoromethyl-benzoyl}-guanidine]
76 | CS(=O)(=O)c1ccccc1Oc1cc(C(=O)N2CCC(c3ccc(C(=O)NC(=N)N)cc3C(F)(F)F)CC2)ccn1 [N-(4-{1-[2-(2-Methanesulfonyl-phenoxy)-pyridine-4-carbonyl]-piperidin-4-yl}-3-trifluoromethyl-benzoyl)-guanidine]
200 | COc1ccccc1-c1cc(C(=O)N2CCC(c3ccc(C(=O)NC(=N)N)cc3C(F)(F)F)CC2)ccn1 [N-(4-{1-[2-(2-Methoxy-phenyl)-pyridine-4-carbonyl]-piperidin-4-yl}-3-trifluoromethyl-benzoyl)-guanidine]
140 | COc1ccc(CC(=O)N2CCC(c3ccc(C(=O)NC(=N)N)cc3C(F)(F)F)CC2)cc1 [N-(4-{1-[2-(4-Methoxy-phenyl)-acetyl]-piperidin-4-yl}-3-trifluoromethyl-benzoyl)-guanidine]
